Experiments:
[1] = Oral (per os) toxicity (LD50); format: in vivo
[2] = test system: DOCA-Na. rat; assay: Comparative antihypertensive activity of polyether ionophores in the DOCA-Na rat (Example 3, Table III); format: in vivo; details: oral, five-day period, daily dose 1/100 of oral LD50 up to 10 mg/kg/day; for AHR (Subacute antihypertensive ratio): bromolasalocid as standard reference; for DURATION OF EFFECT: monitored until return to pre-drug levels
Method: Using bromolasalocid as a standard for comparison, a number of polyether ionophores were tested for antihypertensive activity. The tests were conducted utilizing single oral dosages in the DOCA-Na. rat over a five-day period with dosing discontinued thereafter. Blood pressure monitoring was carried out for the five-day period and daily after cessation of dosing until blood pressure returned to pre-drug levels. […] The daily dosage was calculated by using one-one hundredth (1/100) of the oral (per os) toxicity (LD50) up to a maximum of 10 mg/kg/day. The antihypertensive activity expressed as AHR (Subacute antihypertensive ratio) was calculated using bromolasalocid as the standard reference (Table III).

Compound	LD50 [1]	ONSET TO MAX. RESPONSE [2]	AHR (Subacute antihypertensive ratio) [2]	DURATION OF EFFECT [2]
BROMOISOLASALOCID	> 1000 mg/kg	2 days	0.85	8 days
CNc1ccc2oc(C[C@H]3O[C@@]4(CC[C@H]3C)O[C@H]([C@H](C)C(=O)c3ccc[nH]3)[C@H](C)C[C@H]4C)nc2c1C(=O)O [A-23187]	> 1000 mg/kg	4 days	0.93	10 days
CC/C(=C\C=C\[C@@H]1C=C[C@@H]2[C@@H](CC)CC[C@H]2[C@@H]1C(=O)c1ccc[nH]1)[C@@H]1O[C@@H]([C@@H](C)C(=O)O)CC[C@@H]1C [X-14547A]	129 mg/kg	2 days	0.58	3 days
CO[C@@H]1C[C@@H](C[C@H]2CC[C@H](C)[C@H]([C@@H](C)C(=O)O)O2)O[C@]2(O[C@](C)([C@H]3CC[C@@](C)([C@@H]4O[C@@H]([C@H]5O[C@@](O)(CO)[C@H](C)C[C@@H]5C)C[C@@H]4C)O3)C[C@H]2C)[C@@H]1C [NIGERICIN, Nigericin]	190 mg/kg	3 days	4.0	9 days
Lysocellin	225 mg/kg	2 days	2.08	3 days
COC1CCC(OC2C(C)C(O)(C(C)C(=O)O)OC(CC3CC(OC)C(C)C4(O3)OC(C)(C3CCC(C5CCC(C6OC(C)(O)C(C)C(OC)C6C)O5)O3)C(OC)C4C)C2(C)OC)OC1C (stereo not shown) [A-204]	14 mg/kg	4 days	86.6	5 days
Monensin	250 mg/kg	2 days	7.2	9 days

From patent US4161520A, “Method of treating hypertension” (priority 1976, dated 1979)
